BindingDB's records for doi:10.1158/0008-5472.can-03-2847 (The University of Birmingham, 2004)

What was measured:
[1] = target: T1, Aldo-keto reductase family 1 member C3 (Homo sapiens, UniProt P42330); experiment: 3alpha-Androstanediol Oxidation Inhibition Assay; conditions: pH 7; 30 °C
T1 sequence (P42330 whole entry): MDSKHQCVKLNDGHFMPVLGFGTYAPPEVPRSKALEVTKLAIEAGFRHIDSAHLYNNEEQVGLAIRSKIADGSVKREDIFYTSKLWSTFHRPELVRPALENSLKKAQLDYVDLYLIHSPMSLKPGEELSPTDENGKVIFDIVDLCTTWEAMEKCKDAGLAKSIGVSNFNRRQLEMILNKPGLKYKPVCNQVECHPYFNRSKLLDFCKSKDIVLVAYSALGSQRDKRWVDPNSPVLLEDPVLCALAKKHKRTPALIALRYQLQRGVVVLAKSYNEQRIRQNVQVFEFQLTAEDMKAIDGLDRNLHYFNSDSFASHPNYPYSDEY
Method: A fluorescence assay was used to determine the kinetic constants for the oxidation of 3alpha-androstanediol. The fluorescence emission of NADPH at 450 nm (5-nm slit width) with excitation at 340 nm (15-nm slit width) was monitored. A standard curve was constructed by monitoring fluorescence changes with incremental additions of NADPH. […] The type of inhibition and the inhibition constants were calculated using the Leonora program. All reactions were initiated by the addition of enzyme.

[2] = target: T1, Aldo-keto reductase family 1 member C3; experiment: Androsterone Reduction Inhibition Assay; conditions: pH 7; 30 °C
Method: Enzyme activity was measured in the reductive direction against varying concentrations of androsterone. Initial velocities were measured by observing the rate of change of absorbance of pyridine nucleotide at 340 nm. Calculation of kcat and Km values used the Leonora program, yielding estimates of the kinetic constants. […] The type of inhibition and the inhibition constants were calculated using the Leonora program. All reactions were initiated by the addition of enzyme.

O=C(O)c1ccccc1Nc1cccc(C(F)(F)F)c1 [2-{[3-(trifluoromethyl)phenyl]amino}benzoic acid]
Ki [1]: 140 nM
Ki [2]: 3100 nM
